Measurements reported in patent US11370774B2, “Substituted benzofuran, benzopyrrole, benzothiophene, and structurally related complement inhibitors” (BioCryst Pharmaceuticals, Inc., priority 2018, dated 2022).

Biological target: Factor D (Homo sapiens (Human), UniProt P00746)
Assay: Factor D esterolytic assay (Z-Lys-SBzl substrate, DTNB, 405 nm)
Type: biochemical
Conditions: Z-Lys-SBzl 1.29 mM, pH 7.5, 10% DMSO, tested a minimum of three times, read-out: Measured Ki (IC50) Value for Compounds: IC50
Method in brief: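 Thioester hydrolysis (Z-Lys-SBzl, 1.29 mM) by human Factor D ([…]) detected through DTNB color at 405 nm over 600 sec, minus 690 nm background. Buffer: 100 mM HEPES pH 7.5, 500 mM NaCl, 10% DMSO; optional room-temperature preincubation before substrate. IC50 derived from percent rate inhibition; at least three runs.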

Factor D, sequence (P00746 26-253): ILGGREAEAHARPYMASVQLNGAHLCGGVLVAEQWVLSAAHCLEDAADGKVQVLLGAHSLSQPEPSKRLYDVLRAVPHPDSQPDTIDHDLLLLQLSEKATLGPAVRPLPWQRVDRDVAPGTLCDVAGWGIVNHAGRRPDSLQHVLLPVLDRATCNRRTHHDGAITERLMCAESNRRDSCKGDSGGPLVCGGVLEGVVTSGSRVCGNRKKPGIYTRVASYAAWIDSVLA

Structure (SMILES)	IC50 [nM]
NCc1cccc(-c2cn3cccc3c(C(=O)Nc3ccccc3CC(=O)O)n2)c1 [Compound 93h, 2-(2-(3-(3-(aminomethyl)phenyl)pyrrolo[1,2-a]pyrazine-1-carboxamido)phenyl)acetic acid]	< 1000
NCc1cccc(-c2cc(COc3ccccc3CC(=O)O)cc3ccoc23)c1O [Compound 248c, 2-(2-((7-(3-(aminomethyl)-2-hydroxyphenyl)benzofuran-5-yl)methoxy)phenyl)acetic acid]	< 1000
NCc1ccc(-c2cc(CC(=O)N3[C@@H]4C[C@@H]4C[C@H]3C(=O)NCc3cccc(Cl)c3F)cc3ccoc23)cc1 [Compound 275e, (1R,3S,5R)-2-(2-(7-(4-(aminomethyl)phenyl)benzofuran-5-yl)acetyl)-N-(3-chloro-2-fluorobenzyl)-2-azabicyclo[3.1.0]hexane-3-carboxamide]	1000 to 10000
COC(=O)Cc1ccccc1NC(=O)c1nc(-c2cccc(CN)c2)nc2c1CCC2 [Compound 2e, methyl 2-(2-(2-(3-(aminomethyl)phenyl)-6,7-dihydro-5H-cyclopenta[d]pyrimidine-4-carboxamido)phenyl)acetate]	> 10000
NCc1cccc(-c2cc(COc3ccccc3CC(=O)O)cc3c2ccn3CC2CC2)c1F [Compound 149b, 2-(2-((4-(3-(aminomethyl)-2-fluorophenyl)-1-(cyclopropylmethyl)-1H-indol-6-yl)methoxy)phenyl)acetic acid]	< 1000
NCc1cccc(-c2cc(C(=O)Nc3ccccc3CC(=O)O)cc3ccoc23)c1 [Compound 15d, 2-(2-(7-(3-(aminomethyl)phenyl)benzofuran-5-carboxamido)phenyl)acetic acid]	< 1000
COCc1cc2cc(COc3ccccc3CC(=O)O)cc(-c3cccc(C(N)CF)c3)c2o1 (single isomer, unassigned; (+)) [Compound 278e, (+)-2-(2-((7-(3-(1-amino-2-fluoroethyl)phenyl)-2-(methoxymethyl)benzofuran-5-yl)methoxy)phenyl)acetic acid]	< 1000
NCc1cccc(-c2cc(COc3ccccc3CC(=O)O)cc3c2cnn3CC2CC2)c1 [Compound 126h, 2-(2-((4-(3-(aminomethyl)phenyl)-1-(cyclopropylmethyl)-1H-indazol-6-yl)methoxy)phenyl)acetic acid]	< 1000
COc1c(C(=O)Nc2ccccc2CC(=O)O)cc(-c2ccnc(CN)c2)c2occc12 [Compound 251c, 2-(2-(7-(2-(aminomethyl)pyridin-4-yl)-4-methoxybenzofuran-5-carboxamido)phenyl)acetic acid]	1000 to 10000
NCc1cccc(-c2cc(COc3cc(F)ccc3CC(=O)O)cc3c(C(F)(F)F)coc23)c1F [Compound 487b, 2-(2-((7-(3-(aminomethyl)-2-fluorophenyl)-3-(trifluoromethyl)benzofuran-5-yl)methoxy)-4-fluorophenyl)acetic acid]	< 1000
NCc1cc(-c2cc(COc3ccccc3CC(=O)O)cc3[nH]ccc23)ccn1 [Compound 211e, 2-(2-((4-(2-(aminomethyl)pyridin-4-yl)-1H-indol-6-yl)methoxy)phenyl)acetic acid]	< 1000
NCc1cccc(-c2cc(COc3ccccc3CC(=O)O)cc3cc(C4CC4)oc23)c1F [Compound 88b, 2-(2-((7-(3-(aminomethyl)-2-fluorophenyl)-2-cyclopropylbenzofuran-5-yl)methoxy)phenyl)acetic acid]	< 1000
NCc1cc(-c2cc(COc3ccccc3CC(=O)O)cc3occc23)ccn1 [Compound 123d, 2-(2-((4-(2-(aminomethyl)pyridin-4-yl)benzofuran-6-yl)methoxy)phenyl)acetic acid]	< 1000
NCc1cccc(-c2nc(C(=O)Nc3ccccc3CC(=O)O)nc3c2COC3)c1 [Compound 48h, 2-(2-(4-(3-(aminomethyl)phenyl)-5,7-dihydrofuro[3,4-d]pyrimidine-2-carboxamido)phenyl)acetic acid]	1000 to 10000
NCc1cccc(-c2nc(C(=O)Nc3cscc3CC(=O)O)cc3ccoc23)c1 [Compound 145c, 2-(4-(7-(3-(aminomethyl)phenyl)furo[2,3-c]pyridine-5-carboxamido)thiophen-3-yl)acetic acid]	< 1000
NCc1ccc(-c2cc(COc3ccccc3CC(=O)O)cc3ccoc23)s1 [Compound 206c, 2-(2-((7-(5-(aminomethyl)thiophen-2-yl)benzofuran-5-yl)methoxy)phenyl)acetic acid]	< 1000
NCc1cccc(-c2cc(COc3ccccc3CC(=O)O)cc3c2ccn3S(=O)(=O)C2CC2)c1F [Compound 213b, 2-(2-((4-(3-(aminomethyl)-2-fluorophenyl)-1-(cyclopropylsulfonyl)-1H-indol-6-yl)methoxy)phenyl)acetic acid]	< 1000
CCc1ccc(CC(=O)O)c(OCc2cc(-c3ccnc(CN)c3F)c3occc3c2)c1 [Compound 375c, 2-(2-((7-(2-(aminomethyl)-3-fluoropyridin-4-yl)benzofuran-5-yl)methoxy)-4-ethylphenyl)acetic acid]	< 1000
NCc1cccc(-c2cc(CC(=O)N3CCC[C@H]3C(=O)NCc3cccc(Cl)c3F)cc3ccoc23)c1 [Compound 277e, (S)-1-(2-(7-(3-(aminomethyl)phenyl)benzofuran-5-yl)acetyl)-N-(3-chloro-2-fluorobenzyl)pyrrolidine-2-carboxamide]	< 1000
NC(CF)c1cccc(-c2cc(COc3ccccc3CC(=O)O)cc3ccoc23)c1 (stereo not drawn) [Compound 186c, 2-(2-((7-(3-(1-amino-2-fluoroethyl)phenyl)benzofuran-5-yl)methoxy)phenyl)acetic acid]	< 1000

Results, then the compound that gave them:

IC50 [nM]	Structure (SMILES)
< 1000	N#Cc1ccc(CC(=O)O)c(OCc2cc(-c3cccc(CN)c3)c3occc3c2)c1 [Compound 237b, 2-(2-((7-(3-(aminomethyl)phenyl)benzofuran-5-yl)methoxy)-4-cyanophenyl)acetic acid]
< 1000	Cc1ccc(OCc2cc(-c3cccc(CN)c3)c3occc3c2)c(CC(=O)O)c1 [Compound 162e, 2-(2-((7-(3-(aminomethyl)phenyl)benzofuran-5-yl)methoxy)-5-methylphenyl)acetic acid]
< 1000	NCc1cccc(-c2cc(COc3cc(CC4CC4)ccc3CC(=O)O)cc3ccoc23)c1 [Compound 261c, 2-(2-((7-(3-(aminomethyl)phenyl)benzofuran-5-yl)methoxy)-4-(cyclopropylmethyl)phenyl)acetic acid]
< 1000	CC(=O)Nc1ccc(CC(=O)O)c(OCc2cc(-c3cccc(CN)c3)c3occc3c2)c1 [Compound 224c, 2-(4-acetamido-2-((7-(3-(aminomethyl)phenyl)benzofuran-5-yl)methoxy)phenyl)acetic acid]
< 1000	COc1ccc(CC(=O)O)c(OCc2cc(-c3cccc(CN)c3)c3occc3c2)c1 [Compound 303g, 2-(2-((7-(3-(aminomethyl)phenyl)benzofuran-5-yl)methoxy)-4-methoxyphenyl)acetic acid]
< 1000	NCc1cccc(-c2cc(COc3ccccc3CC(=O)O)cc3c2CCC3)c1 [Compound 177f, 2-(2-((7-(3-(aminomethyl)phenyl)-2,3-dihydro-1H-inden-5-yl)methoxy)phenyl)acetic acid]
< 1000	COCc1cc2cc(COc3cc(NC(C)=O)ccc3CC(=O)O)cc(-c3cccc(CN)c3)c2o1 [Compound 417e, 2-(4-acetamido-2-((7-(3-(aminomethyl)phenyl)-2-(methoxymethyl)benzofuran-5-yl)methoxy)phenyl)acetic acid]
< 1000	Cc1noc2c(-c3cccc(CN)c3)cc(COc3ccccc3CC(=O)O)cc12 [Compound 191h, 2-(2-((7-(3-(aminomethyl)phenyl)-3-methylbenzo[d]isoxazol-5-yl)methoxy)phenyl)acetic acid]
< 1000	NCc1cccc(-c2cc(COc3c(CC(=O)O)ccc4occc34)cc3ccoc23)c1 [Compound 291g, 2-(4-((7-(3-(aminomethyl)phenyl)benzofuran-5-yl)methoxy)benzofuran-5-yl)acetic acid]
< 1000	NCc1ccnc(-c2cc(COc3ccccc3CC(=O)O)cc3ccoc23)c1 [Compound 110c, 2-(2-((7-(4-(aminomethyl)pyridin-2-yl)benzofuran-5-yl)methoxy)phenyl)acetic acid]
< 1000	NCCCNCc1cc2cc(COc3ccccc3CC(=O)O)cc(-c3cccc(CN)c3)c2o1 [Compound 195d, 2-(2-((7-(3-(aminomethyl)phenyl)-2-(((3-aminopropyl)amino)methyl)benzofuran-5-yl)methoxy)phenyl)acetic acid]
< 1000	NCc1ccc(CC(=O)O)c(OCc2cc(-c3ccnc(CN)c3)c3occc3c2)c1 [Compound 451c, 2-(4-(aminomethyl)-2-((7-(2-(aminomethyl)pyridin-4-yl)benzofuran-5-yl)methoxy)phenyl)acetic acid]
< 1000	NCc1cccc(-c2cc(COc3cc(C4CC4)ccc3CC(=O)O)cc3ccoc23)c1 [Compound 203c, 2-(2-((7-(3-(aminomethyl)phenyl)benzofuran-5-yl)methoxy)-4-cyclopropylphenyl)acetic acid]
< 1000	N#Cc1ccc(CC(=O)O)c(OCc2cc(-c3ccnc(CN)c3)c3occc3c2)c1 [Compound 433c, 2-(2-((7-(2-(aminomethyl)pyridin-4-yl)benzofuran-5-yl)methoxy)-4-cyanophenyl)acetic acid]
< 1000	NCc1cccc(-c2cc(COc3ccc(F)cc3CC(=O)O)cc3c(C(F)(F)F)coc23)c1 [Compound 500c, 2-(2-((7-(3-(aminomethyl)phenyl)-3-(trifluoromethyl)benzofuran-5-yl)methoxy)-5-fluorophenyl)acetic acid]
< 1000	CC(=O)Nc1ccc(CC(=O)O)c(OCc2cc(-c3cccc(CN)c3)c3oc(C)cc3c2)c1 [Compound 426c, 2-(4-acetamido-2-((7-(3-(aminomethyl)phenyl)-2-methylbenzofuran-5-yl)methoxy)phenyl)acetic acid]
